Tests used:
[1] = cited from earlier work
[2] = Assay by HPLC (corrected for water content); assay type: physicochemical
Method: (§1) Total related substances was determined by HPLC using a Waters Acquity H-Class UPLC instrument utilizing a Waters Acquity BEH C18, 2.1×50 mm, 1.7 μm column. Sample solutions of each ASD were prepared by accurately weighing ASD powder into a volumetric flask, and diluted in 1:1:1 methanol:ethanol:water. The final concentration of the analyte (cabozantinib) in the sample was approximately 0.2 mg/ml.
(§2) Assay values and total related substances were determined for the ASDs after preparation (t=0) and at the designated stability timepoints using an appropriate HPLC method (as described in Example 1). The reported assay values have been corrected for water content (determined by Karl Fischer coulometric titration method).

[3] = cited from earlier work; remark: listed apart in the source
[4] = Total related substances by HPLC; assay type: physicochemical
Method: as §1
Individual related substances were calculated as peak area percent. Total related substances is calculated as the sum of all detected individual related substances.
as §2

[5] = test system: MET, VEGFR-1, -2 and -3, AXL, RET, ROS1, TYRO3, MER, KIT, TRKB, FLT-3, and TIE-2; conditions: FLT-3, TIE-2; cited from earlier work
[6] = Water content by Karl Fischer coulometric titration; assay type: physicochemical; conditions: after preparation
Method: Water content was determined by Karl Fischer coulometric titration method, using a Mettler Toledo C30S Karl Fischer with Stromboli Oven Sampler. Approximately 40-50 mg of ASD powder was weighed into a glass Stromboli sample vial and the vial was immediately sealed with a foil coated vial cover, and a rubber vial cap cover was placed on top of the sample vial. The vial was then placed onto instrument and analysis was conducted using nitrogen carrier gas. Instrument details and measurement conditions are specified in Table 4.

SMILES	solubility in aqueous media [1]	Assay ([2]; 40° C./protected, 1 month) [%]	Assay ([2]; 40° C./protected, 2 months) [%]	Assay ([2]; 40° C./protected, 3 months) [%]	Assay ([2]; t = 0) [%]	protein bound in human plasma [3] [%]	Total Related Substances ([4]; 40° C./protected, 1 month) [%]	Total Related Substances ([4]; 40° C./protected, 2 months) [%]	Total Related Substances ([4]; 40° C./protected, 3 months) [%]	Total Related Substances (% Area) ([4]; after preparation)	Total Related Substances ([4]; t = 0) [%]	inhibition of tyrosine kinase activity [5]	Water Content (% water) [6] [% water]
COc1cc2nccc(Oc3ccc(NC(=O)C4(C(=O)Nc5ccc(F)cc5)CC4)cc3)c2cc1OC.O=C(O)C[C@H](O)C(=O)O [Cabozantinib (S)-malate salt]	practically insoluble												
COc1cc2nccc(Oc3ccc(NC(=O)C4(C(=O)Nc5ccc(F)cc5)CC4)cc3)c2cc1OC.O=C(O)C[C@H](O)C(=O)O [Cabozantinib (free base), N-(4-(6,7-dimethoxyquinolin-4-yloxy)phenyl)-N′-(4-fluorophenyl)cyclopropane-1,1-dicarboxamide, (2S)-hydroxybutanedioate]		99.9	99.6	99.0	99.2	≥ 99.7	0.52	0.44	0.38	0.44	0.44	inhibits	0.75

— patent publication US12564584B2, “Amorphous cabozantinib particles and uses thereof” (Flex Pharma, LLC, priority 2020, dated 2026)
